The results in this text go back to ChEMBL document CHEMBL5149964, “Discovery and development of selective aldehyde dehydrogenase 1A1 (ALDH1A1) inhibitors” (Eur J Med Chem, 2021).

pIC50: −log10 of the molar value.

The test system of one assay is NCI/ADR-RES. The experiment in a line: cells. As to conditions: Homo sapiens.
The subject of the next assay is TOV21G. The experiment in a line: Anticancer activity against human TOV-21G-RT cells assessed as inhibition of cell growth. The format is functional, cell-based.
Assay [1] has as its target T1, Aldehyde dehydrogenase 1A1 (Homo sapiens, UniProt P00352).
T1 sequence (P00352 whole entry): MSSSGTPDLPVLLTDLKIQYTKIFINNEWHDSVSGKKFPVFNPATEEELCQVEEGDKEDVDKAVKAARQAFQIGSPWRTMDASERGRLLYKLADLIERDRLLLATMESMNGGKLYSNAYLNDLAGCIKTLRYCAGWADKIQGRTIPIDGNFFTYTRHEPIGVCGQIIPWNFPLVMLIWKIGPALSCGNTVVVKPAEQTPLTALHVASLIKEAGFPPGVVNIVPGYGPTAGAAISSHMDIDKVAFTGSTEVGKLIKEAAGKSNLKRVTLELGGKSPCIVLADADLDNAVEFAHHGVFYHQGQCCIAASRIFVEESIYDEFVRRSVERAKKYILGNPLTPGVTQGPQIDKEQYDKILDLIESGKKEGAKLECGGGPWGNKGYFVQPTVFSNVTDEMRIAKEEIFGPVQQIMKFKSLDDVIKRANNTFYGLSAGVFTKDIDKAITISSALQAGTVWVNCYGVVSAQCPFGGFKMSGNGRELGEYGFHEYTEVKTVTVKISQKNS
The experiment in a line: Inhibition of human ALDH1A1 using propionaldehyde as substrate in presence of NAD+ by UV-visible spectrophometric analysis.

In assay [2] the target is T1, Aldehyde dehydrogenase 1A1. The experiment in a line: Inhibition of human ALDH1A1 expressed in Escherichia coli BL21(DE3) pLys cell in presence of NAD+ by fluorescence based assay.
The target in assay [3] is T2, Retinaldehyde dehydrogenase 3 (Homo sapiens, UniProt P47895).
T2 sequence (P47895 whole entry): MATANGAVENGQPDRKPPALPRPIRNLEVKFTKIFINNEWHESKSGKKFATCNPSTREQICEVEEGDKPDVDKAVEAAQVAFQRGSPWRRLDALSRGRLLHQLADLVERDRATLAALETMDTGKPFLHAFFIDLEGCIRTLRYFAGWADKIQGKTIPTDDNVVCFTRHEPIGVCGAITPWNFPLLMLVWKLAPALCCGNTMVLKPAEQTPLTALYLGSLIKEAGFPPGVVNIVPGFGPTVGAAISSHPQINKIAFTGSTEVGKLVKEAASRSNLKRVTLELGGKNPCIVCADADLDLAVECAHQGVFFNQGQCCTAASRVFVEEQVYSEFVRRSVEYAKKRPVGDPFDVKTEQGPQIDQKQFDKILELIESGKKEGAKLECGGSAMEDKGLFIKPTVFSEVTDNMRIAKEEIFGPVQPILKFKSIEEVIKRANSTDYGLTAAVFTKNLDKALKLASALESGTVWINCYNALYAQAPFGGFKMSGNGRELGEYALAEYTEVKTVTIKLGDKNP
The experiment in a line: Inhibition of human ALDH1A3 expressed in Escherichia coli BL21(DE3) pLys cell in presence of NAD+ by fluorescence based assay.

For assay [4], the target named is T3, Aldehyde dehydrogenase 1A1 (Homo sapiens) (UniProt P00352).
T3 sequence (whole entry): T1 sequence (P00352 whole entry)
The experiment in a line: Inhibition of human ALDH1A1 assessed as fluorescent enhancement checked in presence of NAD+ by fluorescence based assay.

Assay [5] has as its target T1, Aldehyde dehydrogenase 1A1. The experiment in a line: Inhibition of ALDH1A1 (unknown origin).
The next assay relates to A549. The experiment in a line: Anticancer activity against human A549 cells assessed as inhibition of cell growth by MTT assay. The format is functional, cell-based. In general terms: Tetrazolium dyes change colour on reduction, which living cells bring about.

What is called pIC50 is the negative decadic logarithm of the IC50, by convention in mol/L. Turning to `CC(=O)O[C@H]1C(=O)[C@@]2(C)[C@H]([C@H](OC(=O)c3ccccc3)[C@]3(O)C[C@H](OC(=O)[C@H](O)[C@@H](NC(=O)c4ccccc4)c4ccccc4)C(C)=C1C3(C)C)[C@]1(OC(C)=O)CO[C@@H]1C[C@@H]2O` [PACLITAXEL], the figures for the pIC50 in the assay with NCI/ADR-RES and in the assay on TOV21G were 6.74 and 6.58, respectively. For `CC(C)CCn1c(CN2CCN(C(N)=O)CC2)nc2c1c(=O)n(C)c(=O)n2C`, the pIC50 in assay [1] was 6.68. As for `O=C(O)CN1C(=O)S/C(=C/c2ccc(OCc3nc4ccccc4c(=O)n3-c3ccccc3)cc2)C1=O`, the negative-log IC50 (pIC50) is 5.27 in assay [2] and 4.64 in assay [3]. `Cc1cc(C=O)ccc1-c1c2cc(F)c(=O)cc-2oc2cc(O)c(F)cc12`: the Activity in assay [4] is 20.

In assay [5], `CCC(SC1=Nc2ccccc2C2=NC(C(C)C)C(=O)N12)C(=O)Nc1ccccc1` (centres undefined) showed a pIC50 of 6.36. The same measure, in the same setting: for `CCC(SC1=Nc2ccccc2C2=NC(C(C)CC)C(=O)N12)C(=O)N1CCc2ccccc21` (centres undefined) the value was 6.41; for `CCC(SC1=Nc2ccccc2C2=NC(C(C)C)C(=O)N12)C(=O)N1CCc2ccccc21` (centres undefined), 6.08; for `CCC(SC1=Nc2ccccc2C2=NC(CC(C)C)C(=O)N12)C(=O)Nc1ccccc1` (centres undefined), 6.24. `CCC(SC1=Nc2ccccc2C2=NC(CC(C)C)C(=O)N12)C(=O)N1CCc2ccccc21` (centres undefined) showed a pIC50 in assay [5] of 5.93. On to `CCCCCC(=O)N1C[C@@H](CCl)c2c1ccc1ccccc21`, for which, in the assay on A549, the pIC50 was 7.55. Take `COc1cccc2c1C(=O)c1c(O)c3c(c(O)c1C2=O)C[C@@](O)(C(=O)CO)C[C@@H]3O[C@H]1C[C@H](N)[C@H](O)[C@H](C)O1` [DOXORUBICIN]: the pIC50 with NCI/ADR-RES was 6.69; with TOV21G it was 6.43.
